Assay results as given in US20130143304A9, “LIGF-TYPE SYSTEMS FOR BIOCONVERSION OF LIGNIN-DERIVED COMPOUNDS” (priority 2010, published 2013).

Tested on: yeast Saccharomyces cerevisiae
Test: not given
Conditions: each compound alone; cited from earlier work

Molecule | antifungal activity against the yeast Saccharomyces cerevisiae
COc1ccc(C=O)cc1OC [Veratraldehyde] | significant antifungal activities
O=C(O)C=Cc1ccccc1 [cinnamic acid] | significant antifungal activities
O=C(O)/C=C/c1cccc(O)c1 [m-coumaric acid] | significant antifungal activities
O=C(O)/C=C/c1ccccc1O [o-coumaric acid] | significant antifungal activities
O=C(O)/C=C/c1ccc(O)cc1 [p-coumaric acid] | significant antifungal activities
COc1cc(C(=O)O)ccc1O [vanillic acid] | significant antifungal activities
COc1cc(CCC(C)=O)ccc1O [vanillylacetone] | significant antifungal activities

Tested on: not listed separately
Test: in vitro biochemical assay for beta-etherase activity on fluorescent substrate MUAV (clarified E. coli cell extracts, 4MU fluorescence)
Conditions: MUAV substrate
Protocol: This example describes a method for gene expression in E. coli, as well as beta-etherase biochemical assays. Expression of known and putative beta-etherase genes was performed using 5 ml cultures of the recombinant E. coli strains described herein in Luria Broth medium by induction of gene expression using isopropylthiogalactoside (IPTG) to a final concentration of 0.1 mM. Following induction, and cell harvest, the cells were disrupted using either sonication or the BPER (Invitrogen) cell lysis system.
In vitro reactions were performed in a total volume of 200 ul and contained: 25 mM TrisHCl pH 7.5; 0.5 mM dithiothreitol; 1 mM glutathione; 0.05 mM or 0.1 mM MUAV; 10 ul of clarified cell extract used to initiate the reactions. Following incubation for 2.5 hours at room temperature, a 50 ul sample of the reactions was terminated using 150 uL of 300 mM glycine/NaOH buffer pH 9. The formation of 4 methylumbelliferone (4MU) upon hydrolysis of the aryl ether bond was monitored by the increase in fluorescence at λex=360 nm and λem=450 nm using a Spectramax UV/visible/fluorescent spectrophotometer.
The total protein concentrations of the cell lysates were determined using the BCA reagent system for protein quantification (Pierce). […]

Molecule | fold more efficient than S. paucimobilis ligE beta-etherase
ligE1: N. aromaticivorans beta-etherase, glutathione S-transferase-like polypeptide, recombinantly expressed in E. coli (protein) MAANNTITFYDLALSTGATISPFVWATKYALKHKGFDLDVVPGGFTGILERTGGKTERLPAIVDDGEFVLDSWGIVEYLDAKYPDRPVLIPHESVAATLKALDNWFWNAAVGPWMFCFCQDYRDLSLPQDHEYVTHSREKMLGRKLEEVQAGREERLPKISAALEPLRAALAQHQWLGGSSPNYADYRIMGGILFTASVCKTPVLANDDPLRDWIERCLDLYGGLGRHPGLFPLFGLEQREGDPDLFNRAAGQGGIYKRNTGPESTRAETQRITEGMKK | approximately 75 fold

Same assay, conditions: MUAV substrate; concentration not given

Molecule | total activity (beta-etherase)
LigF2: N. aromaticivorans beta-etherase, glutathione S-transferase-like polypeptide, recombinantly expressed in E. coli (protein) MALKYYHAEPLANSLKSMVPLKEKGLAYESIYVDLHKFEQHQPWFTAINPEGQVPVLDHDGTIITHTTVINEYLEDAFPDAQPADAPLRPRDPVGAARMRYWNKFIDEHVMNYVSMHGWHRMVGVIARNIASGDFEKLLESIPLPDQRKKWATARSGFSEADLANATAKIEYALDKVEKQLGETKWLAGDTYTLADINFYSHCGAMVERMFPEMEVARRAPRLCEWRDRVAARPAVAEALKSEDRTAPGLRVWSGEVR | 1206 rfu/ug

Same assay, conditions: reactions containing 0.1 mM MUAV substrate; E. coli cell extracts expressing the protein

Molecule | total activity (beta-etherase)
ligE: S. paucimobilis ligE beta-etherase, positive control polypeptide (protein) MARNNTITLYDLQLESGCTISPYVWRTKYALKHKGFDIDIVPGGFTGILERTGGRSERVPVIVDDGEWVLDSWVIAEYLDEKYPDRPMLFEGPTQKNLMKFLDNWLWSTAVGPWFRCYILDYHDLSLPQDRDYVRWSREQWFLGGQRLEDVQAGREDRLPLVPPTLEPFRRILAETKWLGGDQPNFADYSALAVFLWTASVARTPPLTEDDPLRDWLDRGFDLFDGLGRHPGMNPLFGLKLREGDPEPFVRQTGPAGAGGQALNKGPQTTKMPPRVAEKAD | 7 rfu/ug
ligE1: N. aromaticivorans beta-etherase, glutathione S-transferase-like polypeptide, recombinantly expressed in E. coli (protein) MAANNTITFYDLALSTGATISPFVWATKYALKHKGFDLDVVPGGFTGILERTGGKTERLPAIVDDGEFVLDSWGIVEYLDAKYPDRPVLIPHESVAATLKALDNWFWNAAVGPWMFCFCQDYRDLSLPQDHEYVTHSREKMLGRKLEEVQAGREERLPKISAALEPLRAALAQHQWLGGSSPNYADYRIMGGILFTASVCKTPVLANDDPLRDWIERCLDLYGGLGRHPGLFPLFGLEQREGDPDLFNRAAGQGGIYKRNTGPESTRAETQRITEGMKK | 529 rfu/ug

Tested on: Escherichia coli
Test: not given
Conditions: benzaldehyde derivatives; each compound alone; cited from earlier work

Molecule | antibacterial activity against Escherichia coli
O=Cc1ccc(O)c(O)c1O [2,3,4-trihydroxybenzaldehyde] | antibacterial activity
O=Cc1cccc(O)c1O [2,3-dihydroxybenzaldehyde] | antibacterial activity
O=Cc1c(O)cc(O)cc1O [2,4,6-trihydroxybenzaldehyde] | antibacterial activity
O=Cc1ccc(O)cc1O [2,4-dihydroxybenzaldehyde] | antibacterial activity
O=Cc1cc(O)ccc1O [2,5-dihydroxybenzaldehyde] | antibacterial activity
COc1cccc(C=O)c1O [2-hydroxy-3-methoxybenzaldehyde] | antibacterial activity
COc1ccc(O)c(C=O)c1 [2-hydroxy-5-methoxybenzaldehyde] | antibacterial activity
O=Cc1ccccc1O [2-hydroxybenzaldehyde] | antibacterial activity
COc1cc(O)cc(OC)c1C=O [4-hydroxy-2,6-dimethoxybenzaldehyde] | antibacterial activity

Same assay, conditions: known; each compound alone; cited from earlier work

Molecule | antimicrobial activity against Escherichia coli
O=Cc1ccc(O)cc1 [4-hydroxybenzaldehyde] | antimicrobial activity
O=Cc1ccc(CO)o1 [5-hydroxymethylfurfural] | antimicrobial activity
O=Cc1ccco1 [furfural] | antimicrobial activity
COc1cc(C=O)cc(OC)c1O [syringaldehyde] | antimicrobial activity
COc1cc(C=O)ccc1O [vanillin] | antimicrobial activity
